The values below are quoted from earlier work in patent publication US9884123B2, “Ligand-targeted molecules and methods thereof” (INVICTUS ONCOLOGY PVT. LTD., priority 2012, dated 2018).

Like-named read-outs stand apart in the source and are kept apart here.

For data set [1] the following is noted: test system not given.
Data set [2] relates to MDR cells.
Where [3] appears, read: Table 1, order of magnitude in words.

As for `CCCCCCC[C@H](O)CC[C@H](O)[C@H]1CC[C@H]([C@H]2CC[C@H]([C@H](O)CCCCCCCCCC[C@@H](O)CC3=C[C@H](C)OC3=O)O2)O1` [27-hydroxybullatacin], the IC50 (as a rule, the point on the concentration scale where inhibition reaches its midpoint) in data set [1] (setting [3]) is reported as “Low pM”.

With `Cc1c[nH]c2c1[C@@]13C[C@@H]1CN(C(=O)c1cc4cc(NC(=O)c5cc6ccccc6o5)ccc4[nH]1)C3=CC2=O` [Adozelesin (DC1), Adozelesin], the IC50 in data set [1] (Table 1, numeric value, read-out: IC50) was 0.02 nM.

For `COc1c(O)c2c(c3cc(C(=O)N4CCc5c4c(O)c(OC)c4[nH]c(C(=O)N6CC7CC78C6=CC(=O)c6[nH]cc(C)c68)cc54)[nH]c13)CCN2C(N)=O` (stereo not shown) [CC-1065], in data set [1] (setting [3]), the IC50 result is on record as “nM to”.

`COc1cccc2c1C(=O)c1c(O)c3c(c(O)c1C2=O)C[C@@](O)(C(=O)CO)C[C@@H]3O[C@H]1C[C@H](N)[C@H](O)[C@H](C)O1` [Doxorubucin]: the IC50 result in data set [1] (setting [3]) is listed as “High nM”.

Turning to `C=C1C[C@H](C)C[C@@H]2CC=C[C@@H](C/C=C\C(=O)O[C@H]([C@@H](O)/C=C/[C@@H]3CC(C)=CCO3)C[C@@H]3O[C@H]3[C@@H](O)C1)O2` [Laulimalide], the IC50 result in data set [1] (setting [3]) was “Low nM”.

On to `CC(=O)O[C@@H](C)/C=C\C(=O)N[C@@H]1C[C@H](C)[C@H](C/C=C(C)/C=C/[C@H]2OC(C)(C)C[C@@]3(CO3)[C@@H]2O)O[C@@H]1C` [Meamycin], for which the “Remarks: active against MDR cells too” value in data set [2] was “Active”. Also, the IC50 entry in data set [1] (setting [3]) was “picomolar”.

As for `CC[C@@H](/C=C(/C)[C@H]1C[C@H](OC)C[C@@H](O)C(C)(C)[C@]2(O)O[C@H](C[C@H](OC)[C@@H](O)C(=O)O1)C[C@H](OC)[C@@H]2O)CO` [Peloruside A], the IC50 entry in data set [1] (setting [3]) is “Low nM”.

In the case of `COc1cc([C@@H]2c3cc4c(cc3[C@@H](O[C@@H]3O[C@@H]5CO[C@@H](c6cccs6)O[C@H]5[C@H](O)[C@H]3O)[C@H]3COC(=O)[C@H]23)OCO4)cc(OC)c1O` [Teniposide], the IC50 result in data set [1] (setting [3]) is “Low nM”.

On to Auristatins E and F, for which, in data set [1] (setting [3]), the 50% inhibitory concentration (IC50) entry is recorded as “nM to”.

Regarding Calicheamicins, in data set [1] (setting [3]), the IC50 result was “Picomolar”.

As for Epothilones A and B, in data set [2], the “Remarks: active against MDR cells too” value was “Active”.

“Maytansinoid [Maytansinoid (DM1 and DM4)]”: the IC50 result in data set [1] (setting [3]) is reported as “nM to”.
